Source: article doi:10.1101/2025.03.14.643404, “A Bivalent Molecular Glue Linking Lysine Acetyltransferases to Oncogene-induced Cell Death” (bioRxiv, 2025)

Key:
BBC3/PUMA = experiment: Western blot of BBC3/PUMA in SUDHL5; assay type: cell-based, human; details: SUDHL5, 48 hours
Description: Cells were plated at 1M/mL and treated with drug at indicated timepoints and doses. Cells were harvested on ice in RIPA buffer (50mM Tris-HCl pH 8, 150mM NaCl, 1% NP-40, 0.1% DOC, 1% SDS, protease inhibitor cocktail (~20 mg/ml pepstatin, aprotinin, and leupeptin), 1mM DTT) and 1:200 benzonase (Sigma E1014) was added and incubated for 20 mins. After 10 min centrifugation at 14,000g and 4 °C, the supernatant was collected and protein concentration was measured by Bradford. SDS-PAGE analysis was carried out in either 4–12% or 12% Bis-Tris PAGE gels (Thermo NW04120 and NW04127). Antibodies used for immunoblots were: BCL6 (1:1000 v:v, Cell Signaling D65C10), p300 (1:250, Santa Cruz F-4 sc-48343), CBP (1:1000, Cell Signaling D6C5), c-MYC (1:1000, Cell Signaling D84C12), Caspase-3 (1:1000, Cell Signaling 9662), GAPDH (1:2000, Santa Cruz 6C5 sc-32233), BBC3/PUMA (1:1000, Cell Signaling E2P7G), FOXO3 (1:1000, Cell Signaling 75D8), H3K27ac (1:1000, abcam ab4729), H2BK20ac (1:1000, Cell Signaling D709W), H3 (1:10,000, Cell Signaling 1B1B2), H2B (1:10,000, Cell Signaling D2H6), p27/CDKN1B (1:1000, Cell Signaling D69C12), and TP53 (1:1000, Santa Cruz DO-1). ImageStudio (Licor) was used for blot imaging and quantification.

BRPF1 = target: T1, BRPF1 (Homo sapiens, UniProt P55201); experiment: BROMOscan binding to recombinant human bromodomains; details: 10 μM
T1 construct: purchased BROMOscan (service)

CBP^BD-BCL6^BTB = experiment: TR-FRET ternary assay CBPBD-BCL6BTB; assay type: binding, human
Description: 10 μL reactions containing 10 nM 6x-His- p300^BD or 6x-His-CBP^BD, 200 nM BiotinylatedAvi-BCL6^BTB, 20 nM streptavidin-FITC (SA1001, Thermo), and 1:400 anti-6x-His-terbium (PerkinElmer 61HI2TLF) in buffer containing 20 mM HEPES pH 7.5, 150 mM NaCl, 0.1% BSA, 0.1% NP-40, and 1 mM TCEP were plated in low-volume 384 well plates. Drugs were digitally dispensed (Tecan D300e) into protein-containing wells, and the plate was allowed to incubate in the dark for 1 hour at room temperature. Emission at 490 nm (terbium) and 520 nm (FITC) was measured on a PHERAstar FS plate reader (BMG Labtech) upon excitation with 337 nm. The ratio of signal at 520 nm to 490 nm was calculated and normalized to DMSO-treated protein.

T1 sequence (P55201 628-732 limits assumed): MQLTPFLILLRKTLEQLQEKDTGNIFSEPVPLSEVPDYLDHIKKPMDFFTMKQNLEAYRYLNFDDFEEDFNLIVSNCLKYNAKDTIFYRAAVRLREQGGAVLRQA

CNC(=O)COc1cc2cc(Nc3nc(N4CCC(C(=O)N5CCN(CCC(=O)N6CCC(n7nc(N8CCCc9cc(-c%10cnn(C)c%10)c(C(F)F)cc98)c8c7CCN(C(=O)NC)C8)CC6)CC5)CC4)ncc3Cl)cc(OC)c2n(C)c1=O [TCIP3]
PUMA expression increase (BBC3/PUMA): more than 6 fold
bromodomain selectivity (BRPF1): may also engage BRPF1 at high compound concentrations
TR-FRET signal AUC, times higher than NEG1 (CBP^BD-BCL6^BTB): 16 times
TR-FRET signal AUC, times higher than NEG2 (CBP^BD-BCL6^BTB): 25 times
